Experiments:
[1] = 72 h
[2] = type: binding
Experimental: A composition of the invention can comprise SAE-CD, corticosteroid, aqueous liquid carrier, and an antihistamine. In some embodiments, the composition contains SAE-CD, budesonide, water (or aqueous buffer) and azelastine. Example 14 details the preparation of such a composition. Other solutions of azelastine in buffer with varying amounts of SAE-CD, in the absence of budesonide, were prepared and scanned by UV Spectrometer. The change in absorption as a function of SAE-CD concentration was plotted and used to determine the equilibrium binding constant of azelastine with SAE-CD, according to the Benesi-Hildebrand equation. […] The binding constant for budesonide under similar conditions was determined to be about 1000; therefore, azelastine will compete with budesonide, or another corticosteroid, for binding to SAE-CD. Accordingly, the amount of SAE-CD present can be increased to permit complete dissolution of both drugs.
(§1) The equilibrium binding constant of the corticosteroid can change when a second active agent is present in a composition of the invention. Since azelastine hydrochloride (AZ-HCl) has an approximately 10-fold higher binding constant for SBE-β-CD than does budesonide (BUD), the amount of SBE-β-CD present in an aqueous composition of the three needs to be sufficient to solubilize both drugs. Example 19 details a procedure for determination of the phase solubility of budesonide in the presence of varying amounts of azelastine. The results are depicted in FIGS. 11A (for SBE-β-CD) and 11B (for SBE-β-CD and SBE-γ-CD). […] FIG. 11B is a chart of the phase solubility of BUD as a function of SBE-β-CD or SBE-γ-CD concentration in solution using various different concentrations of AZ-HCl (1.00-2.75 mg.mL). […] Thus, increasing the amount of AZ-HCl in the solution decreases the overall solubility of BUD. […] Therefore, it is advantageous to prepare solution compositions of these combinations using SBE-γ-CD due to the efficiency of interaction so as to require less of one SAExCD versus another different SAEyCD to solubilize similar amounts of actives in the presence of each other.

[3] = pH and temperature stability of azelastine with and without CAPTISOL (Example 16); type: physicochemical; conditions: sixteen weeks, 25, 40, 60° C., pH 4, 5, 6
Excerpt: SAE-CD is also capable of stabilizing a second active agent included in the composition. Example 16 details a procedure for evaluating the stability of azelastine in the presence of SAE-CD at varying temperatures and in solutions of different pH's. The results are depicted in FIGS. 10A to 10C. The SAE-CD stabilized the azelastine for the period of sixteen weeks regardless of the temperature or pH of the solution. The lower the temperature, the greater the stabilization.
The pH and temperature stability of an aqueous liquid composition comprising SAE-CD, azelastine, and buffer were determined as follows.
Stock citrate solutions (sodium citrate (3 mM) and citric acid solution (3 mM); 500 mL each) were prepared. The citrate solutions were combined and titrated to prepare stock buffered solutions (at least 150 mL each) having a pH of 4, 5, or 6. A stock solution of azelastine hydrochloride (5 mg/mL) in water was prepared. Assay solutions comprising CAPTISOL, azelastine and buffer were prepared by mixing CAPTISOL (1.4 g) and stock solution of azelastine (7.5 mL) in stock buffered solution (QS to final volume of 75 mL for each different pH). Assay solutions comprising azelastine and buffer were prepared by mixing stock solution of azelastine (7.5 mL) and stock buffered solution (67.5 mL, or QS to final volume of 75 mL). […]

[4] = type: binding; remark: listed apart in the source
Excerpt: as §1

Steroid solubility (intrinsic) [1] [µM]	Equilibrium complex stability constant with SBE-β-CD [2] [M⁻¹]	Equilibrium complex stability constant with SBE-β-CD relative to SBE-γ-CD [2]	Equilibrium binding constant with CAPTISOL ([2]; pH 4.5)	Equilibrium complex stability constant with SBE-γ-CD [4] [M⁻¹]	Structure (SMILES)	Stability in the presence of SAE-CD [3]
0	–	–	–	–	C[C@@H]1C[C@H]2[C@@H]3CCC4=CC(=O)C=C[C@]4(C)[C@@]3(Cl)[C@@H](O)C[C@]2(C)[C@@]1(O)C(=O)CCl [Mometasone, mometasone]	–
–	~10000	about 5 times	approximately 10,000	2200	CN1CCCC(n2nc(Cc3ccc(Cl)cc3)c3ccccc3c2=O)CC1 (stereo not drawn) [azelastine, 4-[(4-chlorophenyl)methyl]-2-(1-methylazepan-4-yl)-phthalazin-1-one]	stabilized
